Laboratory results as given in ChEMBL document CHEMBL1121638, “Synthesis and preliminary pharmacological evaluation of asymmetric chloroquine analogues” (1981).
“And” between values parts separate entries of the source, which are not always exact repeats. Identical values can stand only once. The source made the active and inactive calls. No cut-off for these calls is given here.

Key:
Format in all cases: functional
Mus musculus [1] = species: Mus musculus; experiment: Compound was evaluated for the percentage inhibition of the control PGF2-alpha response at a concentration of 3 x 10 e-4 M in isolated mouse ileum
Mus musculus [2] = species: Mus musculus; experiment: Compound was evaluated for the percentage inhibition of PGF2-alpha-induced contractions at a concentration of 10 e-5 M in isolated mouse ileum; NI=No inhibition
Mus musculus [3] = species: Mus musculus; experiment: Antispasmodic activity evaluated as percentage reduction in the contractile response of the estrous uterus in mouse
Mus musculus [4] = species: Mus musculus; experiment: Compound was evaluated for the percentage inhibition of PGF2-alpha-induced contractions at a concentration of 10 e-5 M in isolated mouse ileum

For `CCN(CC)CCC[C@H](CCl)Nc1ccnc2cc(Cl)ccc12`, the inhibition at 300 µM (Mus musculus [1]; Mus musculus, Ileum) was 17% and the inhibition (Mus musculus [2]) was “inactive”.

In the case of `CCN(CC)CCC[C@H](C)Nc1ccnc2cc(Cl)ccc12`, the Reduction (Mus musculus [3]) is reported as 50%.

With `CCN(CC)CCC[C@@H](CCl)Nc1ccnc2cc(Cl)ccc12.Cl` the inhibition at 10 µM (Mus musculus [4]) was 28% and the Inhibition (Mus musculus [1]) was 55% and 32%.
